From ChEMBL document CHEMBL6074678, “Selectively Antagonizing the NOD1-Mediated Inflammatory Signaling Pathway Mitigates the Gastric Inflammation Induced by Helicobacter pylori Infection” (J Med Chem, 2024)

Assays:
[1] = target: T1, Toll-like receptor 9 (Homo sapiens) (UniProt Q9NR96); test: Inhibition of human TLR9 at 1 uM relative to control
T1 sequence (whole entry): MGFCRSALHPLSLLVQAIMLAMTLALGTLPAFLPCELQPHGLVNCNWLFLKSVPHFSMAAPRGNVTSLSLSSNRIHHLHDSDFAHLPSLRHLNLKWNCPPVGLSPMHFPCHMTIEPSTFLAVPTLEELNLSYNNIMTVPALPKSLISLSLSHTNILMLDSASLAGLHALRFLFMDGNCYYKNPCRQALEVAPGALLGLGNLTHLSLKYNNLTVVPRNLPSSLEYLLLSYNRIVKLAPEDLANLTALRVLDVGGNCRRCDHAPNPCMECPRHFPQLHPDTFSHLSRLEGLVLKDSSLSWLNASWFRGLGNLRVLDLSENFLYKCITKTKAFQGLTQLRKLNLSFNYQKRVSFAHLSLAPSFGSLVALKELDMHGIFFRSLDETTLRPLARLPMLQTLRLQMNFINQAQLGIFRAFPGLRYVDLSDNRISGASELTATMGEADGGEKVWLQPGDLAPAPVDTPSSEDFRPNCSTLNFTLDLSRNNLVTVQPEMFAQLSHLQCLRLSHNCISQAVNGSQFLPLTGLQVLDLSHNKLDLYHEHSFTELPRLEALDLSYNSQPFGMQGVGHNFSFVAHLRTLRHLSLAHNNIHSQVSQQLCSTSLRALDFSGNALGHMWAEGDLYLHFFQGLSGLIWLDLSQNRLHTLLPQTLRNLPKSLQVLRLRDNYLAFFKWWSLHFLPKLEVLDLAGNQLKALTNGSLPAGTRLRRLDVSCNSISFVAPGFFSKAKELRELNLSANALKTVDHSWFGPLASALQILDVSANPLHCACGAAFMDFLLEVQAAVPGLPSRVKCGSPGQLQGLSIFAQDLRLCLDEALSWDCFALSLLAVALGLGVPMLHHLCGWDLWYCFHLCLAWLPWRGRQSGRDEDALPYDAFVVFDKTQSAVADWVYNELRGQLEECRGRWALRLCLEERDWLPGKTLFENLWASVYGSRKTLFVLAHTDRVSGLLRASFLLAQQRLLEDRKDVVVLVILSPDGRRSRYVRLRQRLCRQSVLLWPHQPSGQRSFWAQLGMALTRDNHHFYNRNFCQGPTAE

[2] = target: Toll-like receptor 2 (Homo sapiens) (UniProt O60603); test: Inhibition of human TLR2 at 1 uM relative to control
Chain of Toll-like receptor 2 (Homo sapiens) (O60603 whole entry, the tested form may be a part): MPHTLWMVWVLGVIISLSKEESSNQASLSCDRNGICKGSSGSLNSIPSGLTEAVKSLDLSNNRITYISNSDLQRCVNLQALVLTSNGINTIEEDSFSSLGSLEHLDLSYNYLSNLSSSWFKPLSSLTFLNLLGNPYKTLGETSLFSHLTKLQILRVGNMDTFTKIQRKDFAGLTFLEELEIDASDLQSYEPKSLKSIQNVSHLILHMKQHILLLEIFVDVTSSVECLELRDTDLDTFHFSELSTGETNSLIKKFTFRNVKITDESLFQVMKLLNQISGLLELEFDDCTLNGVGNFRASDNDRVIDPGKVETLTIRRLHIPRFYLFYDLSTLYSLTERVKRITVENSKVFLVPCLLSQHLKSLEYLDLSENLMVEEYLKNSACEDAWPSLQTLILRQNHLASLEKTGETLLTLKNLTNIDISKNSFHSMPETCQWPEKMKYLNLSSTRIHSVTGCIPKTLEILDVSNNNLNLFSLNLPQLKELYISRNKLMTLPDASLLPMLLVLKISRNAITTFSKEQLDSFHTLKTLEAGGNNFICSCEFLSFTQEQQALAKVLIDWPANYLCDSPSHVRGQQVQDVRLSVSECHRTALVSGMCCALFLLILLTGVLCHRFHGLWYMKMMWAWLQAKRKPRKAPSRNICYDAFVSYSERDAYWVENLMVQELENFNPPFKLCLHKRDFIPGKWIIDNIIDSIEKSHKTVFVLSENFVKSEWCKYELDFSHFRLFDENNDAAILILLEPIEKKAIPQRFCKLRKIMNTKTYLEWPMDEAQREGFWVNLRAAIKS

[3] = target: Nucleotide-binding oligomerization domain-containing protein 2 (Homo sapiens, UniProt Q9HC29); test: Inhibition of human NOD2 at 1 uM relative to control
Chain of Nucleotide-binding oligomerization domain-containing protein 2 (Q9HC29 whole entry, the tested form may be a part): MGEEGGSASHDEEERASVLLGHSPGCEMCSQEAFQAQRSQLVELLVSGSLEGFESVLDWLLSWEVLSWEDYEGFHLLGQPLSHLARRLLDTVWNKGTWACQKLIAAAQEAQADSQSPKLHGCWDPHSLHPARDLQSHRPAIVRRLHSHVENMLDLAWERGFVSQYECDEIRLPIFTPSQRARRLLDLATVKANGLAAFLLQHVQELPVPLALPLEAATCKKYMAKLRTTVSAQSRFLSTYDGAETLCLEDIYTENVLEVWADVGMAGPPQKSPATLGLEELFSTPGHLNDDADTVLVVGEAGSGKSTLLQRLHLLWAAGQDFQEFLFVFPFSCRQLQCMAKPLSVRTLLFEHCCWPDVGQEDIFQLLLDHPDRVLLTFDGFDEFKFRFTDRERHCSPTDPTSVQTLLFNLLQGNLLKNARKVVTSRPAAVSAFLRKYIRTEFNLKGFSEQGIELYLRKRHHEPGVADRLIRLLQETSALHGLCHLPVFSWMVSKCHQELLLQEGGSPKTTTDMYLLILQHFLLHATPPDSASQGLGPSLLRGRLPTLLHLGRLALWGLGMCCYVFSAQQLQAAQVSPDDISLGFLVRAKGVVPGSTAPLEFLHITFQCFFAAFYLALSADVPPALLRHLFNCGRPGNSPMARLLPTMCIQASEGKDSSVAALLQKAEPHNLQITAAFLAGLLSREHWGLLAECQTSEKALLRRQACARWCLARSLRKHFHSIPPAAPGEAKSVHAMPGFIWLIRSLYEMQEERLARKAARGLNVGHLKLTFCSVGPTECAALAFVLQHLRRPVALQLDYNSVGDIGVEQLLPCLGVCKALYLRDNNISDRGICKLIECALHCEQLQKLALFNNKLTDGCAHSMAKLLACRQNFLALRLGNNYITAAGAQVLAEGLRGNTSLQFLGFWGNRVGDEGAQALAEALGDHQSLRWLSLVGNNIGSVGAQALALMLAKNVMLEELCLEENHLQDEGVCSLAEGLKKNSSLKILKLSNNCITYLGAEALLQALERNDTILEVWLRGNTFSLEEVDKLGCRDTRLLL

[4] = target: T2, Nucleotide-binding oligomerization domain-containing protein 2 (Mus musculus) (UniProt Q8K3Z0); test: Inhibition of mouse NOD2 at 1 uM relative to control
T2 sequence (whole entry): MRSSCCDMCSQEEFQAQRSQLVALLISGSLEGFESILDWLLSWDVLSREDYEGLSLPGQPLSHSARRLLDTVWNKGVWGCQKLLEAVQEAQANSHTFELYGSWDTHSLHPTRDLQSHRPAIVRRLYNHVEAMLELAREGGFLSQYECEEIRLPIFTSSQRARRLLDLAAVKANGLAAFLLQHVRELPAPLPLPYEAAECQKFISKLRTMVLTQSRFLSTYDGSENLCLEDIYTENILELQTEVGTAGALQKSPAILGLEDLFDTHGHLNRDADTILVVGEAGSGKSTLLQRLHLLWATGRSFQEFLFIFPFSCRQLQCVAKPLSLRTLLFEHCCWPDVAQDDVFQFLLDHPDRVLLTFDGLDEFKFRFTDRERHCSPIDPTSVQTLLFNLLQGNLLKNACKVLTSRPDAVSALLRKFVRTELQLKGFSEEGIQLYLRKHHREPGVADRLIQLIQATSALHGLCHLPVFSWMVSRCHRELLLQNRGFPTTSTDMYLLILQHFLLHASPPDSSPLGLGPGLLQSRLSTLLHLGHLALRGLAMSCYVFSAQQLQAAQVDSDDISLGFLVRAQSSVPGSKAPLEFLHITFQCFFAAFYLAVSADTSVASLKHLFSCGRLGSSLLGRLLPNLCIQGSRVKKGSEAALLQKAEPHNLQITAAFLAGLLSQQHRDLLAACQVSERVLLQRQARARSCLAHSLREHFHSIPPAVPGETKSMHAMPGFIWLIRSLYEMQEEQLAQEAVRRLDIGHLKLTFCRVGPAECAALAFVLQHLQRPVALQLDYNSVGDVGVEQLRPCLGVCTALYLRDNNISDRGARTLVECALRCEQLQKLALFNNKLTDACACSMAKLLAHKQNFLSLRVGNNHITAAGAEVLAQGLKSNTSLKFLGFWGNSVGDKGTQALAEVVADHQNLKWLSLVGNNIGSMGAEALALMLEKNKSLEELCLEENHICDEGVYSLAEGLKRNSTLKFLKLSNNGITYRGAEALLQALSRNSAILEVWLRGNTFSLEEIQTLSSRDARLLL

[5] = Metabolic stability in mouse liver microsomes assessed as half life at 1.25 uM preincubated for 5 mins followed by NADPH addition measured upto 120 mins by LC-MS/MS analysis; assay type: ADME, Microsome; conditions: time < 125 min
[6] = target: Toll-like receptor 4 (Homo sapiens) (UniProt O00206); test: Inhibition of human TLR4 at 1 uM relative to control
Chain of Toll-like receptor 4 (Homo sapiens) (O00206 whole entry): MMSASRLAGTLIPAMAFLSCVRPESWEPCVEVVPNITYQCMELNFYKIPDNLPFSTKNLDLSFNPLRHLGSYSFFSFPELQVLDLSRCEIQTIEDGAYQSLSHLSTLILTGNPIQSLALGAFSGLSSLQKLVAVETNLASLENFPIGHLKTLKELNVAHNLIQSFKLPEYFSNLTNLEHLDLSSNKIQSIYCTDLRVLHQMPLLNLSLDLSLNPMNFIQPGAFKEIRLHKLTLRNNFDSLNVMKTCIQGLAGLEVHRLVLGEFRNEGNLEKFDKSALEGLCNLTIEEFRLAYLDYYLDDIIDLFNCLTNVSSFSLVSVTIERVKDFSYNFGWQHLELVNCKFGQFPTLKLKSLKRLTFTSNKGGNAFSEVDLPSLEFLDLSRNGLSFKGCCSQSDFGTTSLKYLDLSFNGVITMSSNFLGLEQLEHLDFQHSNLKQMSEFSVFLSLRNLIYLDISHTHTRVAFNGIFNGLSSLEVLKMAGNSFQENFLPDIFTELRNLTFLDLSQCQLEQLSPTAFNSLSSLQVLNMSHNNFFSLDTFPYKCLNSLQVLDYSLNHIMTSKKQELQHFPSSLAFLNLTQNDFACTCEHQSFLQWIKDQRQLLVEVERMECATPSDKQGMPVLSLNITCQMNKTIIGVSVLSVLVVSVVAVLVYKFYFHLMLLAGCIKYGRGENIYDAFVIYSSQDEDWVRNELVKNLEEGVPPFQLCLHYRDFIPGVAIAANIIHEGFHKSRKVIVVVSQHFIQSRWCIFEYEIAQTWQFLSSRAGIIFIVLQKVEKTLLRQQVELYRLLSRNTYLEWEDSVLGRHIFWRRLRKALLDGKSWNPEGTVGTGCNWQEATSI

For `N#Cc1ccc2nc(Cl)n(-c3ccc(Cl)c(NS(=O)(=O)c4c(F)cccc4F)c3)c(=O)c2c1`, the inhibition [1] was 37.6%, the inhibition [2] was 8.5% and the inhibition [3] was < 10%. The inhibition [4] was 20.2%, the half-life at 1.25 µM [5] was 26.5 min and the inhibition [6] was < 10%.
An inhibition [1] of 73.9%, an inhibition [2] of 52.3% and an inhibition [3] of 16.1% were found for `CS(=O)(=O)c1ccc2nc(Cl)n(-c3ccc(Cl)c(NS(=O)(=O)c4ccc5ncsc5c4)c3)c(=O)c2c1` in this work. For the same compound, the inhibition [4] was < 10%, the half-life at 1.25 µM [5] was 22.8 min and the inhibition [6] was 15.8%.
An inhibition [1] of 37.1%, an inhibition [2] of 12.8% and an inhibition [3] of 36.9% were found for `CS(=O)(=O)c1ccc2nc(Cl)n(-c3ccc(Cl)c(NS(=O)(=O)c4c(F)cccc4F)c3)c(=O)c2c1` in this work. The inhibition [4] was 21.9%, the half-life at 1.25 µM [5] was 30.1 min and the inhibition [6] was 10%.
